This is an account of results in US10188634B2, “3-(3H-imidazo[4,5-C]pyridin-2-yl)-1 H-pyrazolo[4,3-B]pyridines and therapeutic uses thereof” (Samumed, LLC, priority 2015, dated 2019).

Some results are limits rather than exact numbers.

Holding throughout (assay type): cell-based
One experiment deals with IL-6 in THP-1 cells. Description: Inhibition of IL-6 in LPS-stimulated THP-1 human monocyte cells (HTRF). Particulars: IL-6 HTRF; for EC50: 500 ng/mL LPS, 22 hours; for inhibition at 10 µM: LPS, read-out: percent inhibition in brackets (given for EC50 >10 μM). As to the method: Human Monocyte Cell Culture: Human monocyte cell line (THP-1 cells; Catalog # TIB-202, ATCC, Manassas, Va.) were cultured in Roswell Park Memorial Institute (RPMI) 1640 Medium (Catalog #21870-100, Buffalo, N.Y.) with 1% L-glutamine, 1% HEPES, 1% Sodium Pyruvate, 2% Sodium Bicarbonate supplemented with 100 units/mL penicillin, 50 μg/mL streptomycin, 2-mercaptoethanol (0.05 mM) [basal medium] and 10% fetal bovine serum (Catalog #16140089, Life Technologies, Carlsbad, Calif.) at 37° C. and 5% CO2.
Compound Screening: THP-1 cells were cultured in basal media with 1% FBS for 24 hours before the start of the assay. Each compound was dissolved in DMSO as a 10 mM stock and used to prepare compound source plates. Serial dilution (1:3, 10-point dose-response curves starting from 10 μM) and compound transfer was performed using the ECHO 550 (Labcyte, Sunnyvale, Calif.) into 384-well white low volume assay plates (Greiner Bio-One) with appropriate DMSO backfill for a final DMSO concentration of 0.1%. THP-1 cells were plated at 5000 cells/well in the 384-well plates and incubated at 37° C. for 2 h. 500 ng/mL of LPS was added after 2 hours and cells were incubated for another 22 hours at 37° C. Plates were spun in a centrifuge for 1 minute at […] and a mixture of anti-IL6 XL665, and anti-IL6 Cryptate diluted in reconstitution buffer (Cisbio Inc.) was added to each well. Following incubation for 3 hrs at room temperature, Homogeneous Time-Resolved Fluorescence (HTRF) was measured using the Envision (Perkin Elmer) at 665 nm and […]. The ratio of fluorescence at 665 nm to 620 nm was used as a readout for IL6 quantification. All samples were processed in duplicate. Readings were normalized to DMSO treated cells and normalized activities were utilized for EC50 calculations using the dose-response log (inhibitor) vs. response -variable slope (four parameters) nonlinear regression feature available in GraphPad Prism 5.0 (or Dotmatics). For EC50 of >10 μM, the percent inhibition at 10 μM is provided.
For orientation: In TR-FRET formats the signal depends on donor and acceptor labels being close together.

The test system of experiment [1] is Wnt activity (Sp5-Luc reporter, human Sp5 promoter with eight TCF/LEF binding sites) in SW480 colon carcinoma cells. Put plainly: Screening assay for Wnt activity: Sp5-Luc reporter gene assay in SW480 cells. Particulars: 10-point dose-response starting from 10 μM, overnight incubation. From the text:
The screening assay for Wnt activity is described as follows. Reporter cell lines can be generated by stably transducing cancer cell lines (e.g., colon cancer) or primary cells (e.g., IEC-6 intestinal cells) with a lentiviral construct that includes a Wnt-responsive promoter driving expression of the firefly luciferase gene.
SW480 colon carcinoma cells were transduced with a lentiviral vector expressing luciferase with a human Sp5 promoter consisting of a sequence of eight TCF/LEF binding sites. SW480 cells stably expressing the Sp5-Luc reporter gene and a hygromycin resistance gene were selected by treatment with 150 μg/mL of hygromycin for 7 days. These stably transduced SW480 cells were expanded in cell culture and used for all further screening activities. Each compound was dissolved in DMSO as a 10 mM stock and used to prepare compound source plates. Serial dilution (1:3, 10-point dose-response curves starting from 10 μM) and compound transfer was performed using the ECHO 550 (Labcyte, Sunnyvale, Calif.) into 384-well white solid bottom assay plates (Greiner Bio-One) with appropriate DMSO backfill for a final DMSO concentration of 0.1%. For Sp5-Luc reporter gene assays, the cells were plated at 4,000 cells/well in 384-well plates with medium containing 1% fetal bovine serum and incubated overnight at 37° C. and 5% CO2. Following incubation, 20 μl of BrightGlo luminescence reagent (Promega) was added to each well of the 384-well assay plates. The plates were placed on an orbital shaker for 2 min and then luminescence was quantified using the Envision (Perkin Elmer) plate reader. Readings were normalized to DMSO only treated cells, and normalized activities were utilized for EC50 calculations using the dose-response log (inhibitor) vs. response -variable slope (four parameters) nonlinear regression feature available in GraphPad Prism 5.0 (or Dotmatics). For EC50 of >10 μM, the percent inhibition at 10 μM is provided.

The subject of experiment [2] is LL29 cells (primary human fibroblasts derived from IPF patients) treated with TGF-β1, α-smooth muscle actin. Put plainly: Inhibition of the fibrotic process: αSMA staining in TGF-β1 treated primary human fibroblasts from IPF patients (LL29 cells). Particulars: Fibroblast, 96 h, LL29 cells treated with TGF-β1 (20 ng/mL), 4 days. From the text: Representative compounds were screened using primary human fibroblasts (derived from IPF patients) treated with TGF-β1 to determine their ability to inhibit the fibrotic process.
Human Fibroblast Cell Culture: Primary human fibroblasts derived from IPF patients (LL29 cells) [^1Xiaoqiu Liu, et.al., “Fibrotic Lung Fibroblasts Show Blunted Inhibition by cAMP Due to Deficient cAMP Response Element-Binding Protein Phosphorylation”, Journal of Pharmacology and Experimental Therapeutics (2005), 315(2), 678-687; ^2Watts, K. L., et.al., “RhoA signaling modulates cyclin D1 expression in human lung fibroblasts; implications for idiopathic pulmonary fibrosis”, Respiratory Research (2006), 7(1), 88] were obtained from American Type Culture Collection (ATCC) and expanded in F12 medium supplemented with 15% Fetal Bovine Serum and Penicillin/Streptomycin.
Compound Screening: Each compound was dissolved in DMSO as a 10 mM stock and used to prepare compound source plates. […] LL29 cells are plated at 1,500 cells/well in 80 μL/well F12 medium supplemented with 1% Fetal Bovine Serum. One hour after addition of the cells, TGF-β1 (Peprotech; 20 ng/mL) was added to the plates to induce fibrosis (ref. 1 and 2 above). Wells treated with TGF-β1 and containing DMSO were used as controls. Cells were incubated at 37° C. and 5% CO2 for 4 days. Following incubation for 4 days, SYTOX green nucleic acid stain (Life Technologies [Thermo Fisher Scientific]) was added to the wells at a final concentration of 1 μM and incubated at room temperature for 30 min. Cells were then fixed using 4% formaldehyde (Electron Microscopy Sciences), washed 3 times with PBS followed by blocking and permeabilization using 3% Bovine Serum Albumin (BSA; Sigma) and 0.3% Triton X-100 (Sigma) in PBS. Cells were then stained with antibody specific to α-smooth muscle actin (αSMA; Abcam) (ref. 1 and 2 above) in 3% Bovine Serum Albumin (BSA; Sigma) and 0.3% Triton X-100 (Sigma) in PBS, and incubated overnight at 4° C. Cells were then washed 3 times with PBS, followed by incubation with Alexa Flor-647 conjugated secondary antibody (Life Technologies [Thermo Fisher Scientific]) and DAPI at room temperature for 1 hour. Cells were then washed 3 times with PBS and plates were sealed for imaging. αSMA staining was imaged by excitation at 630 nm and emission at 665 nm and quantified using the Compartmental Analysis program on the CellInsight CX5 (Thermo Scientific). Dead or apoptotic cells were excluded from analysis based on positive SYTOX green staining. % of total cells positive for αSMA were counted in each well and normalized to the average of 11 wells treated with TGF-β1 on the same plate using Dotmatics' Studies Software. The normalized averages (fold change over untreated) of 3 replicate wells for each compound concentration were used to create dose-responses curves and EC50 values were calculated using non-linear regression curve fit in the Dotmatics' Studies Software. For EC50 of >10 μM, the percent inhibition at 10 μM is provided.

The test system of another experiment is SW480 colon cancer cells. Put plainly: Cell viability assay (CellTiter-Blue) in SW480 colon cancer cells. Particulars: Homo sapiens, 96 h, four days incubation, CellTiter-Blue cell viability. As to the method: Representative compounds were screened using the following assay procedure to assess the effect on cell viability as described below.
Each compound was dissolved in DMSO as a 10 mM stock and used to prepare compound source plates. Serial dilution (1:3, 8-point dose-response curves from 10 μM to 0.004 μM) and compound transfer was performed using the ECHO 550 (Labcyte, Sunnyvale, Calif.) into 96-well clear bottom, black-walled plates (Corning-Costar).
Approximately 2×10^3 SW480 colon cancer cells were seeded into each well and allowed to incubate in the presence or absence of compound for four days at 37° C./5% CO2. Eight replicates of DMSO-treated cells served as controls and cells treated with compound were performed in duplicate.
After incubation, 20 μL of CellTiter-Blue (Promega) was added to each well allowed to incubate for approximately 3 hours. This reagent was a buffered solution which contains resazurin, metabolically active cells were able to reduce rezarurin (blue) into resorufin (pink) which was highly fluorescent. This measured fluorescence was used as a readout for cell viability.
After incubation, the plates were read at Ex 560 nm Em 590 nm (Cytation 3, BioTek). Dose-response curves were generated and EC50 concentration values were calculated using non-linear regression curve fit in the GraphPad Prism (San Diego, Calif.) or Dotmatics' Studies Software (Bishops Stortford, UK). For EC50 of >10 μM, the percent inhibition at 10 μM is provided.
For orientation: Resazurin is reduced to fluorescent resorufin, in cell work by metabolically active cells.

What is called EC50 is the concentration needed to bring the measured effect to its halfway point. Low readings indicate higher potency in that assay, high ones lower potency in that assay. A word on the inhibition: it is the drop in the measured response relative to a control, in per cent.

Turning to `Fc1ccccc1-c1cncc2[nH]c(-c3n[nH]c4ccc(-c5cncc(CNCC6CCCC6)c5)nc34)nc12` [Compound 81, 1-Cyclopentyl-N-((5-(3-(7-(2-fluorophenyl)-3H-imidazo[4,5-c]pyridin-2-yl)-1H-pyrazolo[4,3-b]pyridin-5-yl)pyridin-3-yl)methyl)methanamine], the EC50 in the experiment with IL-6 in THP-1 cells turned out to be 3.53 µM; in experiment [1], 1.26 µM; in experiment [2], 1.94 µM; in the experiment on SW480 colon cancer cells, 1.39 µM.

In the case of `O=C(Nc1cncc(-c2ccc3[nH]nc(-c4nc5c(N6CCCCC6)cncc5[nH]4)c3n2)c1)C1CC1` [Compound 188, N-(5-(3-(7-(Piperidin-1-yl)-3H-imidazo[4,5-c]pyridin-2-yl)-1H-pyrazolo[4,3-b]pyridin-5-yl)pyridin-3-yl)cyclopropanecarboxamide], the EC50 with IL-6 in THP-1 cells was found to be 1.4 µM; in experiment [1], 9.7 µM; in experiment [2], 4.94 µM; in the experiment on SW480 colon cancer cells, 4.42 µM.

`FC1(F)CCN(Cc2cncc(-c3ccc4[nH]nc(-c5nc6c(N7CCCCC7)cncc6[nH]5)c4n3)c2)C1` [Compound 194, 5-(5-((3,3-Difluoropyrrolidin-1-yl)methyl)pyridin-3-yl)-3-(7-(piperidin-1-yl)-3H-imidazo[4,5-c]pyridin-2-yl)-1H-pyrazolo[4,3-b]pyridine]: the EC50 with IL-6 in THP-1 cells came to 6.55 µM; in experiment [1], 2.33 µM; in experiment [2], 2.71 µM; in the experiment with SW480 colon cancer cells, 3.59 µM.

Consider `c1ccc(CNCc2cncc(-c3ccc4[nH]nc(-c5nc6c(-c7ccsc7)cncc6[nH]5)c4n3)c2)cc1` [Compound 276, N-Benzyl-1-(5-(3-(7-(thiophen-3-yl)-3H-imidazo[4,5-c]pyridin-2-yl)-1H-pyrazolo[4,3-b]pyridin-5-yl)pyridin-3-yl)methanamine], for which the EC50 in the experiment on IL-6 in THP-1 cells is greater than 10 µM; in experiment [1], 3.46 µM; in experiment [2], 7.47 µM; in the experiment with SW480 colon cancer cells it was 1.18 µM. Moreover, the inhibition at 10 µM in the experiment on IL-6 in THP-1 cells turned out to be 39.9%.

For `CN(C)CCNc1cc(F)cc(-c2cncc3[nH]c(-c4n[nH]c5ccc(-c6cncc(CNCC7CCCC7)c6)nc45)nc23)c1` [Compound 445, N^1-(3-(2-(5-(5-(((Cyclopentylmethyl)amino)methyl)pyridin-3-yl)-1H-pyrazolo[4,3-b]pyridin-3-yl)-3H-imidazo[4,5-c]pyridin-7-yl)-5-fluorophenyl)-N^2,N^2-dimethylethane-1,2-diamine], the EC50 was greater than 10 µM with IL-6 in THP-1 cells, 9.28 µM in experiment [1], 4.02 µM in experiment [2] and 8.71 µM in the experiment with SW480 colon cancer cells. In addition, the inhibition at 10 µM with IL-6 in THP-1 cells turned out to be 45.8%.

Take `CN(C)CCNc1cc(F)cc(-c2cncc3[nH]c(-c4n[nH]c5ccc(-c6ccccn6)nc45)nc23)c1` [Compound 448, N^1-(3-Fluoro-5-(2-(5-(pyridin-2-yl)-1H-pyrazolo[4,3-b]pyridin-3-yl)-3H-imidazo[4,5-c]pyridin-7-yl)phenyl)-N^2,N^2-dimethylethane-1,2-diamine]: the EC50 in the experiment on IL-6 in THP-1 cells was found to be 1.68 µM; in experiment [1], 1.71 µM; in experiment [2], 0.941 µM; in the experiment on SW480 colon cancer cells, 2.14 µM.

For `Fc1cccc(-c2cncc3[nH]c(-c4n[nH]c5ccc(-c6cncc(OCCN7CCCC7)c6)nc45)nc23)c1` [Compound 486, 3-(7-(3-Fluorophenyl)-3H-imidazo[4,5-c]pyridin-2-yl)-5-(5-(2-(pyrrolidin-1-yl)ethoxy)pyridin-3-yl)-1H-pyrazolo[4,3-b]pyridine], the EC50 with IL-6 in THP-1 cells was greater than 10 µM; in experiment [1] it was 3.43 µM; in experiment [2], 2.12 µM; in the experiment on SW480 colon cancer cells, 9.34 µM. The inhibition at 10 µM in the experiment with IL-6 in THP-1 cells was 47.4%.

Regarding `COc1cncc(-c2ccc3[nH]nc(-c4nc5c(N6CCCCC6)cncc5[nH]4)c3n2)c1` [Compound 584, 5-(5-Methoxylpyridin-3-yl)-3-(7-(piperidin-1-yl)-3H-imidazo[4,5-c]pyridin-2-yl)-1H-pyrazolo[4,3-b]pyridine], the EC50 in the experiment on IL-6 in THP-1 cells is 0.044 µM; in experiment [1] it was 3.39 µM; in experiment [2], 1.65 µM; in the experiment with SW480 colon cancer cells, 2.18 µM.
